Reference: US20040266623A1, “SYNERGISTIC QUINCLORAC HERBICIDAL COMPOSITIONS” (priority 2003, published 2004)

Key:
Test in all cases: Greenhouse pot test, postemergent spray, visual control rating converted to percent control
Format in all cases: in vivo
dandelion = details: for Control (1-9) Dandelion: scale 1=no control, 9=death of plant
Description: (§1) Pots of crabgrass, dandelion, white clover, and plantain grown in greenhouse soiless growth media were sprayed with a greenhouse pot sprayer at 43.46 gallons of spray solution/acre and allowed to stand in the greenhouse. Visual observation of the effects made by the herbicidal compositions on the plants in the test pots was recorded for control of crabgrass, dandelion, clover and plantain at 24 hours after treatment (HAT), 48 hours after treatment (HAT), 72 hours after treatment (HAT), 7 days after treatment (DAT), 14 days after treatment (DAT) and 21 days after treatment (DAT). A control rating scale of 1 to 9 was used to record the visual observation of the effect of the herbicidal composition on the plants over the time period of the tests. 1=no control, and 9=death of plant, with intervening numbers representing successive degrees of observed effectiveness of the herbicidal composition over time. The 1-9 control rating scale was converted to percent control in the test data charts that follow.
(§2) The test protocol of S. R. Colby as set out in his article entitled “Calculating Synergistic and Antagonistic Responses of Herbicide Compositions,” received for publication Apr. 11, 1966, Contribution No. 3796 and Scientific Article No. 1271 of the Maryland Agricultural Experiment Station, Department pf Agronomy, University of Maryland was followed to evaluate the synergistic properties of the combination of quinclorac plus a herbicidal protox inhibitor, and a combination of quinclorac, plus a herbicidal protox inhibitor plus a herbicidal auxinic agent as compared with the individual herbicides, using Colby's formulas E=X+Y−XY/100 for a two herbicide combination, where E=the expected percent of inhibition of growth by herbicides, X=the percent inhibition of growth by herbicide A at p lb/A, and Y=the percent inhibition of growth by herbicide B at q lb/A, for a given combination of two herbicides. Colby's formula E=X+Y+Z−(XY+XZ+YZ)/100+XYZ/10,000, was used for the three-way herbicide combination evaluation, where E, X and Y are the same as in the two herbicide formula and Z=the percent inhibition of growth by the third herbicide.

plantain = details: for Control (1-9) Plantain: scale 1=no control, 9=death of plant
Description: as §1, §2

white clover = details: for Control (1-9) Clover: scale 1=no control, 9=death of plant
Description: as §1, §2

crabgrass = details: for Control (1-9) Crabgrass: scale 1=no control, 9=death of plant
Description: as §1, §2

O=C(O)c1c(Cl)ccc2cc(Cl)cnc12 [Quinclorac @ 0.375 lbs/A]
% Control Dandelion (dandelion; Test 3, 7 DAT): 22.2%
Control (1-9) Dandelion (dandelion; Test 3, 7 DAT): 2
% Control Dandelion (dandelion; Test 3, 14 DAT): 44.4%
Control (1-9) Dandelion (dandelion; Test 3, 14 DAT): 4
% Control Dandelion (dandelion; Test 3, 21 DAT): 55.6%
Control (1-9) Dandelion (dandelion; Test 3, 21 DAT): 5
% Control Dandelion (dandelion; Test 3, 24 HAT): 11.1%
Control (1-9) Dandelion (dandelion; Test 3, 24 HAT): 1
% Control Dandelion (dandelion; Test 3, 72 HAT): 22.2%
Control (1-9) Dandelion (dandelion; Test 3, 72 HAT): 2
% Control Dandelion (dandelion; Test 4, 24 HAT): 22.2%
Control (1-9) Dandelion (dandelion; Test 4, 24 HAT): 2
% Control Dandelion (dandelion; Test 4, 72 HAT): 22.2%
Control (1-9) Dandelion (dandelion; Test 4, 72 HAT): 2
% Control Plantain (plantain; Test 3, 7 DAT): 33.3%
Control (1-9) Plantain (plantain; Test 3, 7 DAT): 3
% Control Plantain (plantain; Test 3, 14 DAT): 44.4%
Control (1-9) Plantain (plantain; Test 3, 14 DAT): 4
% Control Plantain (plantain; Test 3, 21 DAT): 44.4%
Control (1-9) Plantain (plantain; Test 3, 21 DAT): 4
% Control Plantain (plantain; Test 3, 24 HAT): 11.1%
Control (1-9) Plantain (plantain; Test 3, 24 HAT): 1
% Control Plantain (plantain; Test 3, 72 HAT): 22.2%
Control (1-9) Plantain (plantain; Test 3, 72 HAT): 2
% Control Plantain (plantain; Test 4, 24 HAT): 11.1%
Control (1-9) Plantain (plantain; Test 4, 24 HAT): 1
% Control Plantain (plantain; Test 4, 72 HAT): 22.2%
Control (1-9) Plantain (plantain; Test 4, 72 HAT): 2
% Control Clover (white clover; Test 3, 7 DAT): 44.4%
Control (1-9) Clover (white clover; Test 3, 7 DAT): 4
% Control Clover (white clover; Test 3, 14 DAT): 55.6%
Control (1-9) Clover (white clover; Test 3, 14 DAT): 5
% Control Clover (white clover; Test 3, 21 DAT): 88.9%
Control (1-9) Clover (white clover; Test 3, 21 DAT): 8
% Control Clover (white clover; Test 3, 24 HAT): 11.1%
Control (1-9) Clover (white clover; Test 3, 24 HAT): 1
% Control Clover (white clover; Test 3, 72 HAT): 22.2%
Control (1-9) Clover (white clover; Test 3, 72 HAT): 2
% Control Clover (white clover; Test 4, 24 HAT): 11.1%
Control (1-9) Clover (white clover; Test 4, 24 HAT): 1
% Control Clover (white clover; Test 4, 72 HAT): 22.2%
Control (1-9) Clover (white clover; Test 4, 72 HAT): 2
% Control Crabgrass (crabgrass; Test 3, 7 DAT): 22.2%
Control (1-9) Crabgrass (crabgrass; Test 3, 7 DAT): 2
% Control Crabgrass (crabgrass; Test 3, 14 DAT): 44.4%
Control (1-9) Crabgrass (crabgrass; Test 3, 14 DAT): 4
% Control Crabgrass (crabgrass; Test 3, 21 DAT): 66.7%
Control (1-9) Crabgrass (crabgrass; Test 3, 21 DAT): 6
% Control Crabgrass (crabgrass; Test 3, 24 HAT): 11.1%
Control (1-9) Crabgrass (crabgrass; Test 3, 24 HAT): 1
% Control Crabgrass (crabgrass; Test 3, 72 HAT): 11.1%
Control (1-9) Crabgrass (crabgrass; Test 3, 72 HAT): 1
% Control Crabgrass (crabgrass; Test 4, 24 HAT): 11.1%
Control (1-9) Crabgrass (crabgrass; Test 4, 24 HAT): 1
% Control Crabgrass (crabgrass; Test 4, 72 HAT): 11.1%
Control (1-9) Crabgrass (crabgrass; Test 4, 72 HAT): 1

Cc1nn(-c2cc(NS(C)(=O)=O)c(Cl)cc2Cl)c(=O)n1C(F)F [Sulfentrazone @ 0.02 lbs/A]
% Control Dandelion (dandelion; Test 3, 7 DAT): 44.4%
Control (1-9) Dandelion (dandelion; Test 3, 7 DAT): 4
% Control Dandelion (dandelion; Test 3, 14 DAT): 77.8%
Control (1-9) Dandelion (dandelion; Test 3, 14 DAT): 7
% Control Dandelion (dandelion; Test 3, 21 DAT): 66.7%
Control (1-9) Dandelion (dandelion; Test 3, 21 DAT): 6
% Control Dandelion (dandelion; Test 3, 24 HAT): 33.3%
Control (1-9) Dandelion (dandelion; Test 3, 24 HAT): 3
% Control Dandelion (dandelion; Test 3, 72 HAT): 33.3%
Control (1-9) Dandelion (dandelion; Test 3, 72 HAT): 3
% Control Plantain (plantain; Test 3, 7 DAT): 100.0%
Control (1-9) Plantain (plantain; Test 3, 7 DAT): 9
% Control Plantain (plantain; Test 3, 14 DAT): 100.0%
Control (1-9) Plantain (plantain; Test 3, 14 DAT): 9
% Control Plantain (plantain; Test 3, 21 DAT): 100.0%
Control (1-9) Plantain (plantain; Test 3, 21 DAT): 9
% Control Plantain (plantain; Test 3, 24 HAT): 44.4%
Control (1-9) Plantain (plantain; Test 3, 24 HAT): 4
% Control Plantain (plantain; Test 3, 72 HAT): 88.9%
Control (1-9) Plantain (plantain; Test 3, 72 HAT): 8
% Control Clover (white clover; Test 3, 7 DAT): 33.3%
Control (1-9) Clover (white clover; Test 3, 7 DAT): 3
% Control Clover (white clover; Test 3, 14 DAT): 44.4%
Control (1-9) Clover (white clover; Test 3, 14 DAT): 4
% Control Clover (white clover; Test 3, 21 DAT): 44.4%
Control (1-9) Clover (white clover; Test 3, 21 DAT): 4
% Control Clover (white clover; Test 3, 24 HAT): 33.3%
Control (1-9) Clover (white clover; Test 3, 24 HAT): 3
% Control Clover (white clover; Test 3, 72 HAT): 22.2%
Control (1-9) Clover (white clover; Test 3, 72 HAT): 2
% Control Crabgrass (crabgrass; Test 3, 7 DAT): 44.4%
Control (1-9) Crabgrass (crabgrass; Test 3, 7 DAT): 4
% Control Crabgrass (crabgrass; Test 3, 14 DAT): 44.4%
Control (1-9) Crabgrass (crabgrass; Test 3, 14 DAT): 4
% Control Crabgrass (crabgrass; Test 3, 21 DAT): 33.3%
Control (1-9) Crabgrass (crabgrass; Test 3, 21 DAT): 3
% Control Crabgrass (crabgrass; Test 3, 24 HAT): 11.1%
Control (1-9) Crabgrass (crabgrass; Test 3, 24 HAT): 1
% Control Crabgrass (crabgrass; Test 3, 72 HAT): 22.2%
Control (1-9) Crabgrass (crabgrass; Test 3, 72 HAT): 2
